Test results taken from article PMC4741719, “Acquisition of a single EZH2 D1 domain mutation confers acquired resistance to EZH2-targeted inhibitors” (Oncotarget, 2015).
Like-named read-outs stand apart in the source and are kept apart here.

Columns and labels:
[1] = tested on: Pfeiffer cells (Parental); experiment: Viability assay (Cell-Titer-Glo, 6 days), parental Pfeiffer cells; assay type: cell-based; conditions: Homo sapiens
E-100 Pfeiffer cells = experiment: Viability assay, EPZ-6438-resistant E-100 Pfeiffer cells; assay type: cell-based; conditions: Homo sapiens, read-out: IC50 cell viability
E-200 Pfeiffer cells = experiment: Viability assay, EPZ-6438-resistant E-200 Pfeiffer cells; assay type: cell-based; conditions: Homo sapiens, read-out: IC50 cell viability
[2] = tested on: H3K27me3 in Pfeiffer cells (Parental); experiment: Cellular H3K27me3 AlphaLISA, parental Pfeiffer cells; assay type: cell-based; conditions: Homo sapiens, Figure 3B
Procedure: Cells were plated at 500 cells/well in 10% DMEM, 50 uL/well in 384 well plates. […] DMSO (0.1%) was used as a vehicle control. Plates were incubated for 72 hours at 37°C. […] Plates were read using AlphaLISA protocol on Envision (Perkin Elmer).

[3] = tested on: H3K27me3 in E-200 Pfeiffer cells; experiment: Cellular H3K27me3 AlphaLISA, E-200 Pfeiffer cells; assay type: cell-based; conditions: Homo sapiens; Pfeiffer E-200; Figure 3B
Procedure: Cells were plated at 500 cells/well in 10% DMEM, 50 uL/well in 384 well plates. […] DMSO (0.1%) was used as a vehicle control. Plates were incubated for 72 hours at 37°C. […] Plates were read using AlphaLISA protocol on Envision (Perkin Elmer). […] Pfeiffer cells were treated overnight with 100 μg/mL of N-ethyl-N-nitrosourea (ENU; Sigma Aldrich, St. […] After 7 days, cells were dosed again with fresh compound and grown until outgrowth (3 to 4 weeks). […] Ion semiconductor sequencing (Ion Torrent) and single molecule real time sequencing (PacBio) were performed at Molecular MD and Expression analysis (Quintiles), respectively.

[4] = tested on: Pfeiffer cells stably-expressing Y111D/A677G EZH2 mutant; experiment: Viability assay, Pfeiffer cells stably-expressing Y111D/A677G EZH2; conditions: Homo sapiens, read-out: IC50 cell viability
[5] = tested on: Pfeiffer cells stably-expressing Y111D/Y641F EZH2 mutant; experiment: Viability assay, Pfeiffer cells stably-expressing Y111D/Y641F EZH2
[6] = tested on: Pfeiffer cells stably expressing Y111D/A677G/H689A; experiment: Viability assay, Pfeiffer cells stably expressing Y111D/A677G/H689A EZH2; conditions: Homo sapiens, read-out: IC50 cell viability
[7] = tested on: H3K27me3 in Pfeiffer cells stably-expressing Y111D/A677G EZH2 mutant; experiment: Cellular H3K27me3 AlphaLISA, Pfeiffer cells stably-expressing Y111D/A677G EZH2; conditions: Homo sapiens, read-out: IC50 H3K27me3
[8] = tested on: DLBCL and rhabdoid INI1-deficient patients; design: method as in earlier work; conditions: phase 1 clinical trial, monotherapy; cited from earlier work

| SMILES | IC50 ([1]; Parental Pfeiffer, Figure 1C, three independent experiments) | IC50 ([1]; Pfeiffer Parental, Figure 3C) | IC50 ([1]; Pfeiffer Parental, Figure 4B) | IC50 (E-100 Pfeiffer cells; E-100, Unwash, Figure 1E) | IC50 (E-100 Pfeiffer cells; E-100, Wash 8 weeks (drug withdrawal), Figure 1E) | IC50 (E-100 Pfeiffer cells; E-100 Pfeiffer, Figure 1C) | IC50 (E-200 Pfeiffer cells; E-200, Unwash, Figure 1E) | IC50 (E-200 Pfeiffer cells; E-200, Wash 8 weeks (drug withdrawal), Figure 1E) | IC50 (E-200 Pfeiffer cells; E-200 Pfeiffer, Figure 1C) | IC50 [2] | IC50 [3] | IC50 [4] | IC50 ([5]; Homo sapiens, Pfeiffer, read-out: IC50 cell viability) | increase in IC50 values ([5]; Y111D/Y641F, both growth and H3K27 tri-methylation) | IC50 [6] | IC50 [7] | clinical response [8] |
| --- | --- | --- | --- | --- | --- | --- | --- | --- | --- | --- | --- | --- | --- | --- | --- | --- | --- |
| CC[C@H](C)n1cc(C)c2c(C(=O)NCc3c(C)cc(C)[nH]c3=O)cc(-c3ccc(N4CCNCC4)nc3)cc21 [GSK126] | 0.023 ± 0.005 µM | 0.033 ± 0.007 µM | 0.03 ± 0.005 µM | 4.03 ± 0.37 µM | 1.22 ± 0.089 µM | 3.96 ± 1.04 µM | 3.15 ± 0.508 µM | 2.01 ± 1.56 µM | 3.98 ± 0.994 µM | 0.036 ± 0.027 µM | > 10 µM | 2.67 ± 1.37 µM | 0.111 ± 0.035 µM | 3–4 fold | 0.025 ± 0.009 µM | 5 ± 1.59 µM |  |
| CCN(c1cc(-c2ccc(CN3CCOCC3)cc2)cc(C(=O)NCc2c(C)cc(C)[nH]c2=O)c1C)C1CCOCC1 [EPZ-6438] |  |  |  |  |  |  |  |  |  |  |  |  |  |  |  |  | durable objective responses |
